A word on the melting point: it is the temperature of the solid-liquid transition.

Results on 88 molecules are retold here after a melting point compilation (Tetko et al.; mined from patent text by program, amines drawn as free bases though some values may be those of a salt).

For `Nc1cc(Cl)cc(C(=O)N[C@@H]2CN3CCC2CC3)c1OCc1cccc(I)c1`, the melting point was 102 to 104 °C.

Regarding `COc1ncnc(OC)c1[N+](=O)[O-]`, the melting point fell in the range of 168 to 170 °C.

Consider `CS(=O)(=O)c1ccc(-c2cnn(CC(F)=C(F)F)c(=O)c2-c2ccc(F)cc2)cc1`, for which the melting point was 154 to 156 °C.

Molecule `Cc1c(C(=O)Nc2ccc(N3CCC(O)CC3)c(C#N)c2)cnn1-c1ccc(F)cc1` gave a melting point of 215 to 216 °C.

The molecule `COc1cc(Br)cc(/C=C/C(=O)/C=C/c2cc(Br)cc(OC)c2)c1` came in with a melting point of 181 to 183 °C.

For the molecule `O=c1c(Cc2cccnc2)cc2cccnc2n1-c1cccc([N+](=O)[O-])c1`, the melting point lay in the range of 226 to 227 °C.

As for `CN1CC[C@@H](c2c(O)cc(O)c3c(=O)cc(-c4c(F)cccc4F)oc23)[C@@H]1CO`, the melting point was 242 to 244 °C.

For `CCCCCCc1nccc2c(CC(=O)O)cccc12`, the melting point amounted to 152 °C.

Consider `NC[C@@H]1CCCc2cc(S(=O)(=O)Nc3cccc(F)c3)ccc21`, for which the melting point was 122 to 123 °C.

Molecule `COc1ccc(/C=C(\C#N)c2ccccc2F)cc1OC1CCCC1` came in with a melting point of 70 to 73 °C.

Regarding `CS(=O)(=O)Nc1cc2c(cc1Oc1ccccc1)C(=O)C(Br)(Br)CO2`, the melting point was 169 to 170 °C.

As to `CCCCCCCCCCCCc1c[nH]c(C(=O)NN)c1`, the melting point is 137 to 140 °C.

For the molecule `Cc1ncc(CS)c(COC(=O)c2ccccc2)c1OC(=O)c1ccccc1`, the melting point is 185 to 189 °C.

`Cc1ccc(-c2nc(CCl)co2)s1`: the melting point fell in the range of 84 to 85 °C.

`CC(C)(C)CN(CC(O)C(Cc1ccccc1)NC(=O)C(CC(N)=O)NC(=O)c1ccc2ccccc2n1)C(=O)NC(C)(C)C` (stereo not drawn) showed a melting point of 115 to 117 °C.

Consider `CCC(=O)N(C)c1c(C(=O)c2cccc(Cl)c2)[nH]c2cc(Cl)ccc12`, for which the melting point lay in the range of 194 to 195 °C.

In turn, `CCOC(=O)CCCCn1c(C(=O)OCC)cc2c(Cl)cc(O)cc21` gave a melting point of 74 to 76 °C.

The molecule `Cc1ccccc1C(=O)Nc1ccc(C(=O)N2CCCC(=O)c3cc(Cl)ccc32)c(C)c1` returned a melting point of 134 to 142 °C.

`O=[N+]([O-])c1cn2c(n1)OC[C@@H](OCc1csc(-c3ccc(OC(F)(F)F)cc3)n1)C2`: the melting point was 140 to 141 °C.

`CCOC(=O)COc1cc(O)c2c(c1Cl)OC1(CCCCC1)CC2=O` gave a melting point of 110 to 111 °C.

Regarding `CC(C)=CC(C#N)NC(=O)c1cn(C)nc1C` (stereo not drawn), the melting point lay within 110 to 112 °C.

`Cc1ccc(-c2nc(CCCCCCSC(C)(C)C(=O)O)c(C)o2)cc1` came in with a melting point of 111 °C.

As to `COc1cc(COc2nn(-c3ccccc3)cc2/C=C2\SC(=O)NC2=O)ccc1OCc1nc(-c2ccco2)oc1C`, the melting point lay within 252 to 253 °C.

Regarding `CCCCc1ccc(C(=O)SCC2C(=O)OCC2c2ccccc2)cc1` (stereo not drawn), the melting point lay within 91 to 93 °C.

As to `COC(=O)NC1=NC(c2cccc3ccccc23)CN1` (stereo not drawn), the melting point lay within 208 to 209 °C.

`Nc1nc2ccccc2c2c1nc(CCCOc1ccccc1)n2CCCCNC(=O)N1CCOCC1` came in with a melting point of 71.5 to 72.1 °C.

Molecule `C[C@H](NC(=O)OC(C)(C)C)C(=O)OCCCCNc1cccc2c1C(=O)c1ccccc1C2=O` showed a melting point of 100 °C.

Molecule `COC(=O)c1ccc(=O)n(CCNC(=O)c2cnccn2)c1` came in with a melting point of 195 to 197 °C.

Regarding `N#Cc1ccc(NC(=O)NC(=O)c2c(F)cccc2F)c(Cl)c1Cl`, the melting point fell in the range of 285 to 287 °C.

On to `CCCc1nc2c(N)nc3ccccc3c2n1CCCCC(=O)N1CCOCC1`, for which the melting point was in the range of 178 to 179 °C.

Regarding `CCCN(c1cccc(-c2ccnc3c([N+](=O)[O-])cnn23)c1)S(C)(=O)=O`, the melting point lay within 165 to 167 °C.

`CC(C)COc1c(NCCCBr)c(=O)c1=O` came in with a melting point of 70 to 71 °C.

In turn, `CNc1ccc2c(c1)Sc1cc(NC)ccc1N2C(C)=O` showed a melting point of 137 °C.

`Nc1nc2ccccc2c2c1ncn2CCOCC#Cc1ccc(Oc2ccccc2)cc1` registered a melting point of 146 to 148 °C.

`COC(=O)C1CC(=O)C(CC(=O)O)C1C[N+](=O)[O-]` (single isomer, unassigned; (-)) came in with a melting point of 111 to 112 °C.

The molecule `CCCCOc1c(CNC(=O)OC(C)(C)C)n(CC(C)C)c(=O)c2ccc(-c3nc(C)c(C#N)s3)cc12` showed a melting point of 148 to 150 °C.

`CN(C)c1ccccc1CSc1nc2ccccc2[nH]1`: the melting point was 167 to 170 °C.

The molecule `Cc1cnnc2c1C(=O)CC(c1cc(Cl)sc1Cl)C2` (stereo not drawn) returned a melting point of 137 to 138 °C.

`CC(C)(C)c1nc2cc(N3CCCCC3)c(N)cc2s1` yielded a melting point of 172 to 175 °C.

The molecule `CC(C)C(C(=O)O)n1nc(Br)c(Br)c1Br` (stereo not drawn) showed a melting point of 92 to 95 °C.

For `CCSc1cnc(Oc2ccc(Cl)c(Cl)c2)cc1C#N`, the melting point lay in the range of 68 to 69 °C.

As to `Cc1onc(-c2ccc(-c3cscn3)cc2)c1-c1ccc(S(N)(=O)=O)cc1`, the melting point is 112 to 115 °C.

For `O=C(O)C1=Cc2cc(Br)cc(F)c2OC1C(F)(F)F` (stereo not drawn), the melting point is 206 to 208 °C.

`CCCCCCCCCCCCCc1nc(NC(=O)Nc2c(C(C)C)cccc2C(C)C)no1` displayed a melting point of 99 to 101 °C.

The molecule `O=c1cc(-c2ccc([N+](=O)[O-])cc2)oc2ncccc12` registered a melting point of 261 to 263 °C.

The molecule `OCC(O)CSSc1nc2ccccc2s1` (stereo not drawn) yielded a melting point of 115 to 120 °C.

In turn, `COc1cc2ncnc(N3CCC(C4(C)CO4)CC3)c2cc1OC` (stereo not drawn) showed a melting point of 125 to 128 °C.

On to `CCCc1nc(N2CCOCC2)nc(N(CCOC(C)=O)C(C)=O)n1`, for which the melting point was 49 to 50 °C.

On to `Cc1cc(C=Cc2ccccc2OCC(O)C(N)C(C)C)on1` (stereo not drawn), for which the melting point was 106 to 108 °C.

Regarding `CCN(CC)CCCCC(=O)c1ccc2c(c1)C(=O)c1cc(C(=O)CCCCN(CC)CC)ccc1-2`, the melting point fell in the range of 108 to 110 °C.

`CC1CCN=C2N1c1ccc(Br)cc1C21OCCCO1` (stereo not drawn): the melting point lay within 69 to 72 °C.

The molecule `Cc1cc(C#N)cc(C(=O)NC(C)C)c1NC(=O)c1cc(Br)nn1-c1ccccc1Cl` displayed a melting point of 145 to 149 °C.

Regarding `CCN1C(=O)C(CCN2CCN(c3ccccc3OC)CC2)Sc2ccccc21` (stereo not drawn), the melting point was 142 to 144 °C.

The molecule `CCCCCCCNC(=O)Nc1ccc(OC)cc1NC(=O)c1cc(C(C)(C)C)c(O)c(C(C)(C)C)c1` had a melting point of 150 to 151 °C.

Consider `CC(C)(O)P(=O)(Oc1ccccc1)Oc1ccccc1`, for which the melting point was 70 to 72 °C.

`Cn1c(C(F)(F)F)cc(=O)n(-c2cc(OS(C)(=O)=O)c(Cl)cc2F)c1=O`: the melting point is 176 to 178 °C.

Take `O=C(CN1CCN(C(CO)C(=O)O)CCN(C(CO)C(=O)O)CCN(C(CO)C(=O)O)CC1)NCCOCCO` (stereo not drawn): the melting point lay in the range of 145 to 150 °C.

As to `COC(=O)c1cc(OCc2ccc3ccccc3n2)nn1C(C)C`, the melting point was 64 to 65 °C.

The molecule `Cc1nc(C)c(-c2ccnc(Nc3ccc(C)c(S(=O)(=O)N4CCOCC4)c3)n2)s1` registered a melting point of 81 to 83 °C.

`O=C(Nc1cccc(F)n1)c1cc(-c2ccc(O)cc2)nc2ccccc12` showed a melting point of 210 to 212 °C.

`CCOc1ccc2c(c1)C(C)=CC(C)(C)N2C1O[C@H](COC(C)=O)[C@@H](OC(C)=O)[C@H](OC(C)=O)[C@H]1OC(C)=O` (stereo partly drawn): the melting point was in the range of 180 to 181 °C.

For the molecule `O=C(N1CC2CCC(C1)O2)C12CC3CC(CC(C3)C1)C2`, the melting point was in the range of 134 to 136 °C.

As for `COC(=O)c1ncn(Cc2ccc([N+](=O)[O-])cc2)n1`, the melting point lay within 175 to 177 °C.

`CCCCCCCCCCCCCCC(CCCCCC(=O)O)CCCCCC(=O)O` had a melting point of 48 to 50 °C.

For the molecule `COc1cc(OCc2cccnc2)ccc1/C=C/c1cc(/C=C/c2ccc3cc[nH]c3c2)n[nH]1`, the melting point fell in the range of 90 to 95 °C.

Regarding `CN(CCCCCCO)c1ccc(N=Nc2ccc(S(C)(=O)=O)cc2)cc1`, the melting point was 114 to 116 °C.

With `Cc1cc(Oc2ncc(C(F)(F)F)cc2Cl)nn1C(=O)N(C(C)C)C(C)C`, the melting point lay in the range of 58 to 60 °C.

`COc1ccc(C(=O)N2CCN(CCc3ccc(Cl)cc3)CC2)cc1`: the melting point was 105 to 106 °C.

As for `c1ccc2c(c1)-c1ccccc1C21c2ccccc2-c2ccc(-n3ccnc3-c3nccn3-c3ccc4c(c3)C3(c5ccccc5-c5ccccc53)c3ccccc3-4)cc21`, the melting point was 404 to 412 °C.

`Cc1ccc(C(Cl)=NOS(C)(=O)=O)cc1` yielded a melting point of 100 to 102 °C.

Consider `Cc1cc(Br)c2[nH]c(=O)n(CCCN3CC=C(c4ccc(Cl)cc4)CC3)c(=O)c2c1`, for which the melting point was 212 to 214 °C.

The molecule `CSc1ccc(C2=NC[C@@H](O)[C@H](c3ccccc3)O2)cc1` (racemic) displayed a melting point of 130 °C.

Take `CNC(=C[N+](=O)[O-])NCCSCc1nccs1`: the melting point lay within 103 to 104 °C.

With `O=[N+]([O-])c1c(Cl)c(Cl)cc2c1OC(F)(F)O2`, the melting point lay in the range of 29 to 30 °C.

For the molecule `CNC(=O)N(c1ccccc1)c1ccccc1`, the melting point was 170 °C.

The molecule `COc1ccnc(C(C)Sc2nc3cc4c(cc3[nH]2)OC(F)(F)O4)c1` (stereo not drawn) came in with a melting point of 173 to 175 °C.

The molecule `CC(=O)N1CS(=O)c2c1cc(C)cc2[N+](=O)[O-]` (stereo not drawn) displayed a melting point of 141 °C.

For `Cc1cc(C)c(NC(=O)CC23CC4CC(CC(C4)C2)C3)cc1C`, the melting point is 158 °C.

`O=C1C2CCN(CC2)C1CN1CCCCC1` (stereo not drawn) yielded a melting point of 34 to 37 °C.

`CCCC(=O)c1ccc(OCC(=O)OC)cc1` had a melting point of 78 to 82 °C.

As to `CCn1nc(C(F)(F)F)c(CS(=O)(=O)C2=NOC(C)(CCl)C2)c1S(C)(=O)=O` (stereo not drawn), the melting point lay within 113 to 114 °C.

Regarding `COC(=O)Cc1cccc(Cc2ccccc2C(=O)O)c1`, the melting point was 67 to 70 °C.

In turn, `Nc1nc(C[C@H](NC(=O)[C@H](Cc2ccccc2)NS(=O)(=O)N2CCOCC2)C(=O)O)cs1` gave a melting point of 149 to 151 °C.

`O=C(OCc1ccccc1)N1c2ccc(I)cc2CC1CO` (stereo not drawn): the melting point was in the range of 110 to 111 °C.

`OCc1nnc2n1-c1ccccc1C(c1ccccc1Cl)=NC2`: the melting point lay in the range of 196 to 197 °C.

`CC(=O)OC1CSC(Oc2ccnc(-c3ccncc3)c2)C(OC(C)=O)C1OC(C)=O` (stereo not drawn) showed a melting point of 185 °C.

`Cc1ncn(C)c1CO` registered a melting point of 125 to 127 °C.

With `O=C(O)CCN1CCN(c2ccc([N+](=O)[O-])cc2)CC1`, the melting point is 250 to 252 °C.
